Data as given in publication PMC7917093, “Multiomics-based dissection of citrus flavonoid metabolism using a Citrus reticulata × Poncirus trifoliata population” (Horticulture Research, 2021).

Key:
[1] = tested on: T1, CitF3H (P. trifoliata allele); experiment: LC-MS product assay, Michaelis-Menten fit; assay type: biochemical, Citrus trifoliata; conditions: 0-1000 μM naringenin; 2-oxoglutarate 10 mM, FeSO4 0.25 mM, ascorbate 10 mM; Tris-HCl pH 8.5; 35 °C
T1 construct: gene F3H; natural allele with five amino acid differences and one indel versus C. reticulata

[2] = tested on: T2, CitF3H (C. reticulata allele); experiment: LC-MS product assay, Michaelis-Menten fit; assay type: biochemical, Citrus reticulata; conditions: 0-1000 μM naringenin; 2-oxoglutarate 10 mM, FeSO4 0.25 mM, ascorbate 10 mM; Tris-HCl pH 8.5; 35 °C
T2 construct: gene F3H

- Km [1]: 7.61 µM
- Km [2]: 121 µM
SMILES: O=C1C[C@@H](c2ccc(O)cc2)Oc2cc(O)cc(O)c21 [naringenin]
